{"source": "ChEMBL document CHEMBL1127171", "about": "“N-2 methylated quaternary derivatives of -carboline-3-carboxylates inhibit acetylcholinesterase in vitro” (Bioorg Med Chem Lett, 1993)", "key": {"[1]": {"target": "Acetylcholinesterase (Electrophorus electricus) (UniProt O42275)", "sequence (O42275 24-633 limits assumed)": "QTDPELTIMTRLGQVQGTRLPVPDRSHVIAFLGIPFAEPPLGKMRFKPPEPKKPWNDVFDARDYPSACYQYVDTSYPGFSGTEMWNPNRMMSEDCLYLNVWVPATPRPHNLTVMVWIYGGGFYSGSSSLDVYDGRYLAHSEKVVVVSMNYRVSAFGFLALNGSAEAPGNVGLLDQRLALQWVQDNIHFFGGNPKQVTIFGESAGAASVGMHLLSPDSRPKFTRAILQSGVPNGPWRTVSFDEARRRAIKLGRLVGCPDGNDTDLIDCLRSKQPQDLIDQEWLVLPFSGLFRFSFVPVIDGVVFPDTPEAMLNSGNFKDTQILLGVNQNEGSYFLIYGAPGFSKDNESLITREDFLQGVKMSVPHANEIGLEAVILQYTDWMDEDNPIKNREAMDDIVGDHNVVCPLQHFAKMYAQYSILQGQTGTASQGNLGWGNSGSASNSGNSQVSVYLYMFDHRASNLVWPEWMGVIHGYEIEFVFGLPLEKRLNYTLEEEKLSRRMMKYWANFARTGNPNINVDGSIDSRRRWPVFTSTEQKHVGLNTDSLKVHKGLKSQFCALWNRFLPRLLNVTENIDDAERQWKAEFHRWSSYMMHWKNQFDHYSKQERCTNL", "experiment": "The compound was tested in vitro for the inhibition of acetylcholinesterase (AChE) isolated from electric eel at 10e-6 M; NA means no significant activity at 10e-3 M"}, "[2]": {"target": "GABA-A receptor; anion channel", "experiment": "Displacement of [3H]flunitrazepam from GABA-A benzodiazepine receptor (BZR) of rat brain membranes (NA = no significant activity)", "assay_type": "cell membranes, Membrane"}, "[3]": {"target": "Acetylcholinesterase (Electrophorus electricus) (UniProt O42275)", "experiment": "The compound was tested in vitro for the inhibition of acetylcholinesterase (AChE) isolated from electric eel at 10e-5 M; NA means no significant activity at 10e-3 M"}, "[4]": {"target": "GABA-A receptor; anion channel", "experiment": "Displacement of [3H]flunitrazepam from GABA-A benzodiazepine receptor (BZR) of rat brain membranes", "assay_type": "cell membranes, Membrane"}, "[5]": {"target": "Muscarinic acetylcholine receptor", "experiment": "The compound was tested in vitro for its binding affinity to muscarinic receptor on rat brain membrane by competitive binding assay using [3H]-QNB"}, "[6]": {"target": "Acetylcholinesterase (Electrophorus electricus) (UniProt O42275)", "experiment": "The compound was tested in vitro for the inhibition of acetylcholinesterase (AChE) isolated from electric eel at 10e-6 M"}, "[7]": {"target": "Acetylcholinesterase (Electrophorus electricus) (UniProt O42275)", "experiment": "The compound was tested in vitro for the inhibition of acetylcholinesterase (AChE) isolated from electric eel at 10e-5 M"}, "[8]": {"test_system": "GABA-A receptor; anion channel", "experiment": "Displacement of [3H]flunitrazepam from GABA-A benzodiazepine receptor (BZR) of rat brain membranes (NA = no significant activity at 10e-3 M)", "assay_type": "cell membranes, Membrane"}}, "note": "The source made the active and inactive calls. The rule behind the calls is not given here."}
{"smiles": "COC(=O)c1cc2c(cn1)[nH]c1ccccc12", "note": "[BETA-CCM]", "values": [{"measurement": "inhibition", "setting": "[1]", "result": "inactive"}, {"measurement": "Ki", "setting": "[2]", "result": 3, "unit": "nM"}, {"measurement": "inhibition", "setting": "[3]", "result": "inactive"}]}
{"smiles": "CCCOC(=O)c1cc2c(c[n+]1C)[nH]c1ccccc12.[I-]", "values": [{"measurement": "Ki", "setting": "[4]", "result": 600, "unit": "nM"}, {"measurement": "Ki", "setting": "[5]", "result": 1, "unit": "µM"}, {"measurement": "inhibition", "setting": "[6]", "result": 34.9, "unit": "%"}, {"measurement": "inhibition", "setting": "[7]", "result": 80.1, "unit": "%"}]}
{"smiles": "CC(C)OC(=O)c1cc2c(c[n+]1C)[nH]c1ccccc12.[I-]", "values": [{"measurement": "Ki", "setting": "[4]", "result": 4100, "unit": "nM"}, {"measurement": "Ki", "setting": "[5]", "result": 0.5, "unit": "µM"}, {"measurement": "inhibition", "setting": "[6]", "result": 14, "unit": "%"}, {"measurement": "inhibition", "setting": "[7]", "result": 62, "unit": "%"}]}
{"smiles": "COC(=O)c1cc2c(c[n+]1C)[nH]c1ccccc12", "values": [{"measurement": "Ki", "setting": "[4]", "result": 1400, "unit": "nM"}, {"measurement": "Ki", "setting": "[5]", "result": 3.1, "unit": "µM"}, {"measurement": "inhibition", "setting": "[6]", "result": 7.2, "unit": "%"}, {"measurement": "inhibition", "setting": "[7]", "result": 43.1, "unit": "%"}]}
{"smiles": "CNC(=O)c1cc2c(c[n+]1C)[nH]c1ccccc12.[I-]", "values": [{"measurement": "Ki", "setting": "[4]", "result": 600, "unit": "nM"}, {"measurement": "Ki", "setting": "[5]", "result": 27, "unit": "µM"}, {"measurement": "inhibition", "setting": "[6]", "result": 1.3, "unit": "%"}, {"measurement": "inhibition", "setting": "[7]", "result": 7.4, "unit": "%"}]}
{"smiles": "CCOC(=O)c1cc2c(c[n+]1C)[nH]c1ccccc12.[I-]", "values": [{"measurement": "Ki", "setting": "[4]", "result": 3200, "unit": "nM"}, {"measurement": "Ki", "setting": "[5]", "result": 0.7, "unit": "µM"}, {"measurement": "inhibition", "setting": "[6]", "result": 13.7, "unit": "%"}, {"measurement": "inhibition", "setting": "[7]", "result": 60.9, "unit": "%"}]}
{"smiles": "CCCCOC(=O)c1cc2c(c[n+]1C)[nH]c1ccccc12.[I-]", "values": [{"measurement": "Ki", "setting": "[4]", "result": 4600, "unit": "nM"}, {"measurement": "Ki", "setting": "[5]", "result": 0.5, "unit": "µM"}, {"measurement": "inhibition", "setting": "[6]", "result": 46, "unit": "%"}, {"measurement": "inhibition", "setting": "[7]", "result": 88, "unit": "%"}]}
{"smiles": "C[n+]1ccc2c(c1)[nH]c1ccccc12", "note": "[NORMELINONINE F]", "values": [{"measurement": "Ki", "setting": "[8]", "result": "Not Active"}, {"measurement": "inhibition", "setting": "[6]", "result": 7.6, "unit": "%"}, {"measurement": "inhibition", "setting": "[7]", "result": 41.2, "unit": "%"}]}
{"smiles": "CN(C)C(=O)Oc1ccc[n+](C)c1", "values": [{"measurement": "inhibition", "setting": "[6]", "result": 59, "unit": "%"}, {"measurement": "inhibition", "setting": "[7]", "result": 93, "unit": "%"}]}
{"smiles": "CCOC(=O)c1cc2cc[nH]c2c[n+]1C.[I-]", "values": [{"measurement": "Ki", "setting": "[8]", "result": "Not Active"}, {"measurement": "inhibition", "setting": "[6]", "result": 4, "unit": "%"}, {"measurement": "inhibition", "setting": "[7]", "result": 17, "unit": "%"}]}
